Values after ≈ are worked out from the molar mass of the structure shown.

Series [1] concerns PANC-1. As to the kind of experiment: Antitumor activity against human PANC-1 cells assessed as cell growth inhibition incubated for 48 hrs by CCK-8 assay. Format: functional, cell-based. To be noted: PANC-1, 48 h.
The next series concerns SW1990. As to the kind of experiment: Antitumor activity against human SW1990 cells assessed as cell growth inhibition incubated for 48 hrs by CCK-8 assay. Format: functional, cell-based. Conditions: SW1990, 48 h.
In series [2] the test system is HeLa. Nature of the series: Antitumor activity against human HeLa cells assessed as cell growth inhibition incubated for 72 hrs by MTT assay. Format: functional, cell-based.
The next series relates to NCI-H1299. Nature of the series: Antiproliferative activity against human H1299 cells incubated for 72 hrs by absorbance based assay. Format: functional, cell-based. Conditions: NCI-H1299, 72 h.
The test system of series [3] is HeLa. As to the kind of experiment: Antiproliferative activity against human HeLa cells incubated for 72 hrs by absorbance based assay. Format: functional, cell-based.
Series [4] concerns PANC-1. Nature of the series: Antitumor activity against human PANC-1. Type of series: functional, cell-based. Conditions: pooled result: one value given for 3 cell lines, strains, targets or settings.
The subject of another series is L5178Y. Nature of the series: Cytotoxicity against mouse L5178Y. Format: toxicity, cell-based.
In the next series the test system is COLO 201. Nature of the series: Antitumor activity against human COL0201 cells assessed as cell growth inhibition incubated for 3 days. Type of series: functional, cell-based. To be noted: COLO 201, 72 h.
For series [5], the system named is HeLa. Nature of the series: Antitumor activity against human HeLa cells assessed as cell growth inhibition incubated for 3 days. To be noted: 72 h. Type of series: functional, cell-based.
The subject of a further series is C-33-A. As to the kind of experiment: Antitumor activity against human C33A cells assessed as cell growth inhibition incubated for 3 days. Type of series: functional, cell-based. To be noted: 72 h.
The test system of another series is MCF7. Nature of the series: Antitumor activity against human MCF7 cells assessed as cell growth inhibition incubated for 3 days. Type of series: functional, cell-based. To be noted: MCF7, 72 h.

`CO[C@@H]1CC(=O)Nc2c(O)c3cc4c2[C@H](/C=C/C=C/C[C@H](OC(=O)[C@@H](C)NC(=O)CC(C)C)[C@H](C)[C@@H](O)/C(C)=C\CC3)[C@H]1O4`: the IC50 in the series on PANC-1 [1] and in the series on SW1990 was more than 10000 nM in each case. As to `CO[C@H]1/C=C/C=C/C=C/C[C@H](OC(=O)[C@@H](C)NC(=O)C2CCCCC2)[C@H](C)[C@@H](O)/C(C)=C\CCC2=C(SC)C(=O)C=C(NC(=O)C1)C2=O`, the half-maximal inhibitory concentration (IC50) with HeLa [2] came to 55 nM. As for `C/C1=C/CCc2c(O)c(cc3c2SCC(=O)N3)NC(=O)C[C@@H](O)/C=C/C=C/C=C/C[C@H](O)[C@H](C)[C@H]1O`, the figures for the IC50 with NCI-H1299 and with HeLa [3] were more than 10000 nM and 10000 nM, respectively. `CO[C@H]1/C=C/C=C/C=C/C[C@H](OC(=O)[C@@H](C)NC(=O)C2CCCCC2)[C@H](C)[C@@H](O)/C(C)=C\CCC2=CC(=O)C(SC)=C(NC(=O)C1)C2=O`: the IC50 in the series with HeLa [2] worked out at 100 nM.

Regarding `CC[C@H](C)C(=O)N[C@H](C)C(=O)O[C@H]1C/C=C/C=C/C=C/[C@H](OC)CC(=O)Nc2cc(O)cc(c2)CC/C=C(/C)[C@H](O)[C@H]1C`, in the series on PANC-1 [4], the IC50 turned out to be 340 nM. For the compound `CO[C@@H]1CC(=O)Nc2c(O)c3cc4c2[C@@H](/C=C/C=C/C[C@H](OC(=O)[C@@H](C)NC(=O)C2CCCCC2)[C@H](C)[C@@H](O)/C(C)=C\CC3)[C@H]1O4`, the IC50 in the series with PANC-1 [1] and in the series with SW1990 was 4730 nM throughout. With `CO[C@@H]1CC(=O)Nc2c(O)c3cc4c2[C@H](/C=C/C=C/C[C@H](OC(=O)[C@@H](C)NC(=O)C2=CCCCC2)[C@H](C)[C@@H](O)/C(C)=C\CC3)[C@H]1O4`, the IC50 in the series on PANC-1 [1] and with SW1990 was more than 10000 nM in each case. `CO[C@H]1/C=C/C=C/C=C/C[C@H](OC(=O)[C@@H](C)NC(=O)C2CCCC(O)C2)[C@H](C)[C@@H](O)/C(C)=C\CCc2cc(O)cc(c2O)NC(=O)C1` (some centres undefined) registered an MIC against L5178Y of 4.89 µM (≈ 3.2 µg/mL). In the case of `CO[C@@H]1CC(=O)Nc2c(O)c3cc4c2[C@H](/C=C/C=C\C[C@H](OC(=O)[C@@H](C)NC(=O)C2CCCCC2)[C@H](C)[C@@H](O)/C(C)=C\CC3)[C@H]1O4`, the IC50 in the series with PANC-1 [1] and in the series on SW1990 was 6900 nM in each case. For `CO[C@H]1/C=C/C=C/C=C/C[C@H](OC(=O)[C@@H](C)NC(=O)C2CCCCC2)[C@H](C)C(=O)/C(C)=C\CCC2=CC(=O)C=C(NC(=O)C1)C2=O`, the IC50 with HeLa [2] is more than 10000 nM. Same read-out and setting: for `CO[C@H]1/C=C/C=C/C=C/C[C@H](OC(=O)[C@@H](C)NC(=O)C2CCCCC2)[C@H](C)[C@@H](O)/C(C)=C\CCc2c(O)c(cc(O)c2SC)NC(=O)C1` the value was 200 nM.

As for `CO[C@H]1/C=C/C=C/C=C/C[C@H](O)[C@H](C)[C@@H](O)/C(C)=C\CCC2=CC(=O)C=C(NC(=O)C1)C2=O`, in the series on L5178Y, the MIC is more than 10 µM. For `C/C1=C/CCc2cc(O)cc(c2)NC(=O)C[C@@H](O)/C=C/C=C/C=C/C[C@H](O)[C@H](C)[C@H]1O`, the half-inhibitory concentration (IC50) with NCI-H1299 is more than 10000 nM; in the series with HeLa [3] it was 10000 nM. On the same counts, the results for `CO[C@H]1/C=C/C=C/C=C/C[C@@H]2O[C@@](C)([C@H](O)[C@H]2C)[C@H]2CCC3=C(S2)C(=O)C=C(NC(=O)C1)C3=O` are more than 10000 nM and 10000 nM. As to `CO[C@H]1/C=C/C=C/C=C/C[C@H](OC(=O)[C@@H](C)NC(=O)C2CCCCC2)[C@H](C)[C@@H](O)/C(C)=C\CCc2c(O)c(cc3c2SCC(=O)N3)NC(=O)C1`, the half-maximal inhibitory concentration (IC50) in the series with COLO 201, with HeLa [5], in the series with C-33-A and in the series on MCF7 was 18 nM in each case.

On to `CO[C@H]1/C=C/C=C/C=C/C[C@H](O)[C@H](C)[C@@H](O)/C(C)=C\CCc2cc(O)cc(c2O)NC(=O)C1`, for which the MIC in the series with L5178Y was found to be 7 µM (≈ 3.2 µg/mL).

`CO[C@H]1/C=C/C=C/C=C/C[C@H](OC(=O)[C@@H](C)NC(=O)C2=CCCCC2)[C@H](C)[C@@H](O)/C(C)=C\CCc2c(O)c(cc3c2SCC(=O)N3)NC(=O)C1`: the IC50 in the series with COLO 201, in the series on HeLa [5], in the series on C-33-A and in the series on MCF7 was 28 nM each time.

As to `C/C1=C/CCc2cc(O)cc(c2)NC(=O)C[C@@H](O)/C=C/C=C/C=C/C[C@H](O)C[C@H]1O`, in the series on HeLa [2], the IC50 was more than 10000 nM.

Regarding `CO[C@H]1/C=C/C=C/C=C/C[C@H](OC(=O)[C@@H](C)NC(=O)C2CCCCC2)[C@H](C)[C@@H](O)/C=C\CCc2cc(O)cc(c2)NC(=O)C1`, the IC50 with HeLa [2] stood at 860 nM. Turning to `CO[C@@H]1CC(=O)Nc2c(O)c3cc4c2[C@H](/C=C/C=C/C[C@H](OC(=O)[C@@H](C)NC(=O)CCC(C)C)[C@H](C)[C@@H](O)/C(C)=C\CC3)[C@H]1O4`, the IC50 in the series on PANC-1 [1] and in the series with SW1990 was more than 10000 nM each time.
